{"source": "patent US11446223B2", "about": "“Anti-aging composition” (NEOPHARM CO., LTD., priority 2016, dated 2022)", "type_in_all_cases": "cell-based", "key": {"[1]": {"tested_on": "human fibroblasts", "assay": "Type-1 collagen synthesis in human fibroblasts (PICP EIA kit)", "details": "24 hours", "description": "N-(1,3-dihydroxy propan-2-yl)-2-ethylhexanamide was added to a culture medium of human fibroblasts (DMEM medium, 10% fetal bovine serum, 1% antibiotics) to confirm the effect of accelerating type-1 collagen synthesis in a cell level. The measurement of the synthesized collagen was qualified using a procollagen type I C-peptide enzyme immunoassay kit (PICP EIA kit).\nThe human fibroblast culture medium was used to aliquot the human-derived fibroblasts (human fibroblasts) into 6 wells at 2×10^5 cell/well. After cell adhesion was confirmed, the culture medium was treated with 2 ml of N-(1,3-dihydroxy propan-2-yl)-2-ethylhexanamide as an effective component (anti-aging composition) per each well, at a concentration of 20 uM. After the culture medium was cultured in an incubator under a condition of 37° C. and 5% CO2 for 24 hours, type-1 collagen which is related to a wrinkle forming factor was measured in a cell extract. […]\nThe effect of accelerating type-1 collagen synthesis was confirmed in the same manner as in Example 1, except that the effective component was not used (a negative control). In addition, type-1 collagen synthesis ability relative to the negative control was calculated as a ratio, and illustrated as a rate of increase (see Table 1 and FIG. 1)."}, "[2]": {"tested_on": "Artificial skin (EpiDermFT)", "assay": "Collagen synthesis in artificial skin, Masson's Trichrome staining", "details": "100 μl at 1% on artificial skin surface, 24 hours, versus PBS (Comparative Example 2)", "description": "Artificial skin (EpiDermFT™ from MatTek, Ashland, USA) was purchased, and stabilized in an exclusive medium (EFT-400) for 18 hours. On the surface of the artificial skin, 100 μl of N-(1,3-dihydroxy propan-2-yl)-2-ethylhexanamide as an effective component (anti-aging composition) at a concentration of 1% was applied. After 24 hours, the artificial skin tissue was immobilized with 10% formaldehyde, embedded with paraffin, and sliced at 5 μm to obtain a sliced tissue which was used for confirming the effect of accelerating collagen synthesis (see FIG. 2).\nThe artificial skin was stabilized in the same manner as in Example 2, and coated with only 100 μl of PBS without an effective component. After 24 hours, the artificial skin tissue was immobilized with 10% formaldehyde, embedded with paraffin, and sliced at 5 μm to obtain a sliced tissue which was used for confirming the effect of accelerating collagen synthesis."}, "[3]": {"tested_on": "human-derived fibroblasts", "assay": "Toxicity / cell proliferation in human-derived fibroblasts", "details": "20 uM"}}, "data": [{"smiles": "CCCCC(CC)C(=O)NC(CO)CO", "note": "(stereo not shown) [Example 1, N-(1,3-dihydroxypropan-2-yl)-2-ethylhexanamide]", "values": [{"measurement": "Type-1 collagen concentration (20 uM)", "setting": "[1]; 20 uM compound, cell extract, human fibroblasts", "result": 0.017}, {"measurement": "Rate of increase (%)", "setting": "[1]; type-1 collagen relative to negative control (Comparative Example 1), 20 uM", "result": 242, "unit": "%"}, {"measurement": "effect of accelerating collagen synthesis (Masson's Trichrome staining)", "setting": "[2]", "result": "accelerated collagen synthesis much more"}, {"measurement": "toxicity", "setting": "[3]", "result": "not toxic"}]}]}
